Patent publication US4725683A, “Fluorophenoxyphenoxypropionates and derivatives thereof” (The Dow Chemical Company, priority 1985, dated 1988)

Experiments:
Barnyard Grass = experiment: Postemergent activity; type: in vivo
How it was run: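 Potted plants about 10 cms tall were sprayed to run-off with conventional equipment using aqueous compositions. These were made by dissolving the active ingredient in acetone at twice the final concentration and diluting with an equal volume of water containing 0.1 percent TWEEN® 200 surfactant. Toxicant-free sprays served as controls. After two weeks of growth, injury was scored from 0 (no effect) to 100 (complete kill).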

Crabgrass = experiment: Postemergent activity; type: in vivo
How it was run: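 Potted crabgrass plants grown to roughly 10 cms tall were sprayed to run-off with aqueous compositions of the test compound, which was first dissolved in acetone at twice the final concentration and then diluted with an equal volume of water containing 0.1 percent by weight TWEEN® 200 surfactant. Pots sprayed without toxicant served as controls. After two weeks under growth-favorable conditions, plant control was scored from 0 (no effect) to 100 (complete kill).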

COC(=O)C(C)Oc1ccc(Oc2ccc(C(F)(F)F)cc2F)cc1 (stereo not drawn) [2-[4-(2-fluoro-4-trifluoromethylphenoxy)phenoxy]propionic acid methyl ester]
% Control (Barnyard Grass; 3.9 ppm): 50%
% Control (Barnyard Grass; 7.8 ppm): 100%
% Control (Barnyard Grass; 15.6 ppm): 100%
% Control (Barnyard Grass; 31.25 ppm): 100%
% Control (Barnyard Grass; 62.5 ppm): 100%
% Control (Barnyard Grass; 125 ppm): 100%
% Control (Crabgrass; 3.9 ppm): 90%
% Control (Crabgrass; 7.8 ppm): 100%
% Control (Crabgrass; 15.6 ppm): 100%
% Control (Crabgrass; 31.25 ppm): 100%
% Control (Crabgrass; 62.5 ppm): 100%
% Control (Crabgrass; 125 ppm): 100%
